Laboratory results taken from ChEMBL document CHEMBL5233261, “Recent accomplishments on the synthetic/biological facets of pharmacologically active 1H-1,2,3-triazoles” (Eur J Med Chem, 2021).
pIC50: −log10 of the molar value. In brackets after ≈: the same amount, converted by molar mass.

Key:
MCF7 [1] = assay: Anticancer activity against human MCF7 cells assessed as cell growth inhibition incubated for 24 hrs by ELISA assay; type: functional, cell-based; conditions: MCF7, 24 h
MCF7 [2] = assay: Anticancer activity against human MCF7 cells assessed as cell growth inhibition incubated for 24 hrs by MTT assay; type: functional, cell-based; conditions: MCF7, 24 h
Pseudomonas aeruginosa = assay: Antibacterial activity against Pseudomonas aeruginosa assessed as bacterial growth inhibition; type: functional; conditions: Pseudomonas aeruginosa; read-out: MIC
Escherichia coli [3] = assay: Antibacterial activity against Escherichia coli assessed as bacterial growth inhibition; type: functional; conditions: Escherichia coli; read-out: MIC
HeLa [4] = assay: Anticancer activity against human HeLa cells assessed as cell growth inhibition incubated for 48 hrs by MTT assay; type: functional, cell-based
Plasmodium falciparum [5] = assay: Antimalarial activity against Plasmodium falciparum 3D7 strain by MSF assay; type: functional, organism-based
[6] = biological target: Enoyl-[acyl-carrier-protein] reductase [NADH] (Mycobacterium tuberculosis) (UniProt P9WGR1); assay: Inhibition of Mycobacterium tuberculosis InhA at 50 microM relative to control
Chain of Enoyl-[acyl-carrier-protein] reductase [NADH] (Mycobacterium tuberculosis) (P9WGR1 whole entry): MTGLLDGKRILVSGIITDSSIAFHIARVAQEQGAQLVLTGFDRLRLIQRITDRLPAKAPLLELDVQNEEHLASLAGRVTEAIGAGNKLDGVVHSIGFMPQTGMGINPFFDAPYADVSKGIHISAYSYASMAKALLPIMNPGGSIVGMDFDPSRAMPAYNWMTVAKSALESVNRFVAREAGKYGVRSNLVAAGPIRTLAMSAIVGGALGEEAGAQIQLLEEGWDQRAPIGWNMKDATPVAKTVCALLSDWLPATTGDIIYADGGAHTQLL

[7] = system: Mycobacterium tuberculosis; assay: Antibacterial activity against Mycobacterium tuberculosis H37Rv ATCC 27294 strain assessed as bacterial growth inhibition by MABA Assay; type: functional
Escherichia coli [8] = assay: Antibacterial activity against Escherichia coli assessed as bacterial growth inhibition incubated for 24 hrs by agar well diffusion assay; type: functional
[9] = system: Mycobacterium tuberculosis; assay: Antibacterial activity against Mycobacterium tuberculosis H37Rv strain assessed as bacterial growth inhibition incubated for 7 days by Resazurin Microtiter Assay; type: functional; conditions: 168 h, time 7 day
Bacillus subtilis [10] = assay: Antibacterial activity against Bacillus subtilis assessed as bacterial growth inhibition incubated for 24 hrs by agar well diffusion assay; type: functional
Staphylococcus aureus [11] = assay: Antibacterial activity against Staphylococcus aureus assessed as bacterial growth inhibition incubated for 24 hrs by agar well diffusion assay; type: functional
Plasmodium falciparum [12] = assay: Antimalarial activity against Plasmodium falciparum 3D7 strain incubated for 40 hrs by Giemsa staining based microscopic analysis; type: functional, organism-based; conditions: 3D7, 40 h
Plasmodium falciparum [13] = assay: Antimalarial activity against Plasmodium falciparum RKL-2 strain incubated for 40 hrs by Giemsa staining based microscopic analysis; type: functional, organism-based; conditions: RKL-2, 40 h
Escherichia coli [14] = assay: Antibacterial activity against Escherichia coli ATCC 11229 assessed as bacterial growth inhibition by agar well diffusion assay; type: functional
Staphylococcus aureus [15] = assay: Antibacterial activity against Staphylococcus aureus ATCC 6538 assessed as bacterial growth inhibition by agar well diffusion assay; type: functional
Listeria = assay: Antibacterial activity against Listeria assessed as bacterial growth inhibition by agar well diffusion assay; type: functional
Staphylococcus aureus [16] = assay: Antibacterial activity against Staphylococcus aureus ATCC 6535 strain assessed as bacterial growth inhibition incubated for 24 hrs; type: functional
[17] = system: Mycobacterium tuberculosis; assay: Antibacterial activity against Mycobacterium tuberculosis H37Rv MTCC 200 strain assessed as bacterial growth inhibition; type: functional
[18] = system: Mycobacterium tuberculosis; assay: Antibacterial activity against Mycobacterium tuberculosis H37Rv strain assessed as bacterial growth inhibition by MABA Assay; type: functional, organism-based
MCF7 [19] = assay: Anticancer activity against human MCF7 cells assessed as cell growth inhibition by MTT assay; type: functional, cell-based
[20] = system: Staphylococcus epidermidis; assay: Antibacterial activity against Staphylococcus epidermidis assessed as bacterial growth inhibition; type: functional; conditions: Staphylococcus epidermidis; read-out: MIC
Aspergillus niger = assay: Antifungal activity against Aspergillus niger assessed as […] growth inhibition; type: functional; conditions: Aspergillus niger; read-out: MIC
Candida albicans = assay: Antifungal activity against Candida albicans assessed as […] growth inhibition; type: functional; conditions: Candida albicans; read-out: MIC
Bacillus subtilis [21] = assay: Antibacterial activity against Bacillus subtilis assessed as bacterial growth inhibition; type: functional; conditions: Bacillus subtilis; read-out: MIC
HeLa [22] = assay: Anticancer activity against human HeLa cells assessed as cell growth inhibition incubated for 48 hrs by SRB assay; type: functional, cell-based
MIA PaCa-2 = assay: Anticancer activity against human MIA PaCa-2 cells assessed as cell growth inhibition incubated for 48 hrs by SRB assay; type: functional, cell-based; conditions: MIA PaCa-2, 48 h

SMILES: COc1cc2ncnc(Nc3ccc(Cn4cc(-c5ccccc5)nn4)cc3)c2cc1OC
- pIC50 (MCF7 [1]): 4.68

SMILES: O=C1C(=O)N(CCCCn2cc(COCCOc3ccc(/C(=C(/CCCl)c4ccccc4)c4ccccc4)cc3)nn2)c2c(Br)cc(Br)cc21
- pIC50 (MCF7 [2]): 4.96

SMILES: O=C1C(=O)N(CCCn2cc(COCCOc3ccc(/C(=C(/CCCl)c4ccccc4)c4ccccc4)cc3)nn2)c2c(Br)cc(Br)cc21
- pIC50 (MCF7 [2]): 4.78

SMILES: COc1ccc2nc(Cl)c(C(=O)NCc3cn(C(=O)c4ccc(F)cc4)nn3)cc2c1
- MIC (Pseudomonas aeruginosa): 6.25 µg/mL
- MIC (Escherichia coli [3]): 6.25 µg/mL

SMILES: NC(=O)N/N=C/c1ccc(OCc2cn(-c3ccc(F)cc3)nn2)cc1
- MIC (Pseudomonas aeruginosa): 35.3 µM

SMILES: Cc1ccc(Cn2cc(CN3C(=O)C4(C(C#N)=C(N)Oc5cc6c(cc54)[nH]c4ccccc46)c4cc(F)ccc43)nn2)cc1 (centres undefined)
- pIC50 (HeLa [4]): 5.47

SMILES: [N-]=[N+]=NCC(=O)NCCNc1ccnc2cc(Cl)ccc12
- pIC50 (Plasmodium falciparum [5]): 7.41

SMILES: NC(=O)N/N=C/c1ccccc1OCc1cn(-c2ccc(Br)cc2)nn1
- MIC (Pseudomonas aeruginosa): 60.2 µM

SMILES: COc1cc(-n2cc(CS(=O)(=O)C3c4ccccc4-c4ccccc43)nn2)cc(OC)c1OC
- inhibition [6]: 73%

SMILES: COc1ccc2nc(Cl)c(C(=O)NCc3cn(Cc4ccccc4)nn3)cc2c1
- MIC [7]: 1.6 µg/mL (≈ 3.92 µM)

SMILES: CCOC(=O)[C@H]1Cc2c([nH]c3ccccc23)CN1Cc1cn(CCCN2C(=O)C(=O)c3ccccc32)nn1
- pIC50 (MCF7 [2]): 4.43

SMILES: Cc1cc(=O)oc2cc(OCc3cn(CCCCCCCCn4cc(COc5cc6oc(=O)cc(C)c6cc5Cl)nn4)nn3)c(Cl)cc12
- inhibition zone (IZ) (Escherichia coli [8]): 14 mm
- MIC [9]: 1.56 µg/mL (≈ 2.25 µM)
- inhibition zone (IZ) (Bacillus subtilis [10]): 19 mm
- inhibition zone (IZ) (Staphylococcus aureus [11]): 16 mm

SMILES: C#CCCO[C@@H]1O[C@@H]2O[C@]3(C)CC[C@H]4[C@H](C)CC[C@@H]([C@H]1C)[C@@]24OO3
- IC50 (Plasmodium falciparum [12]): 0.215 µg/mL (≈ 0.639 µM)
- IC50 (Plasmodium falciparum [13]): 8 µg/mL (≈ 23.8 µM)

SMILES: CC(C)c1ccc(-c2cc(-c3ccc(Cl)cc3)nc(OCc3cn(CC(=O)O)nn3)c2C#N)cc1
- MIC (Escherichia coli [14]): 9.6 µg/mL (≈ 19.7 µM)
- MIC (Staphylococcus aureus [15]): 19.2 µg/mL (≈ 39.3 µM)
- MIC (Listeria): 9.6 µg/mL (≈ 19.7 µM)

SMILES: COc1ccc(C(=O)Cn2cc(CNC(=O)c3cc4cc(OC)ccc4nc3Cl)nn2)cc1
- MIC [7]: 1.6 µg/mL (≈ 3.43 µM)

SMILES: CCOP(=O)(CCCn1cc(Cn2cnc3ccccc3c2=O)nn1)OCC
- MIC (Staphylococcus aureus [16]): 0.625 µg/mL (≈ 1.54 µM)

SMILES: O=C(Cn1cc(-c2ccccc2)nn1)Nc1ccccc1
- MIC [17]: 0.0898 umol/cm3

SMILES: O=c1c(Cn2cc(CCCCCCCCCCCCCCCO)nn2)coc2ccccc12
- IC50 [18]: 1.56 µg/mL (≈ 3.44 µM)

SMILES: COc1cc([C@H]2c3cc4c(cc3[C@H](OCc3cn([C@@H]5O[C@H](COC(C)=O)[C@H](OC(C)=O)[C@H](OC(C)=O)[C@H]5OC(C)=O)nn3)[C@@H]3COC(=O)[C@@H]23)OCO4)cc(OC)c1OC
- pIC50 (MCF7 [19]): 5.90

SMILES: Cc1cc(O)c(C(=O)/C=C/c2ccc(OCc3cn(Cc4ccc(Br)cc4)nn3)cc2)c(=O)o1
- MIC [20]: 3 µM (≈ 1.57 µg/mL)
- MIC (Pseudomonas aeruginosa): 3 µM
- MIC (Aspergillus niger): 3 µM (≈ 1.57 µg/mL)
- MIC (Escherichia coli [3]): 3 µM
- MIC (Candida albicans): 3 µM (≈ 1.57 µg/mL)
- MIC (Bacillus subtilis [21]): 3 µM (≈ 1.57 µg/mL)

SMILES: COc1ccc2cccc(-c3cn(CCCOC(=O)C4=C(Cl)c5cc(C)c(C)cc5CCC4)nn3)c2c1
- pIC50 (HeLa [22]): 5.79
- pIC50 (MIA PaCa-2): > 8.00
